From article PMC4654407 (Bioorganic & medicinal chemistry letters, 2015) come the findings set out here.

Data set [1] is described as follows: Solubility in sodium phosphate buffer. The conditions noted are these: pH 7.4. In kind it is physicochemical.
Data set [2] concerns the target T1, recombinant purified human sEH (Homo sapiens, UniProt P34913).
T1 sequence (P34913 1-555): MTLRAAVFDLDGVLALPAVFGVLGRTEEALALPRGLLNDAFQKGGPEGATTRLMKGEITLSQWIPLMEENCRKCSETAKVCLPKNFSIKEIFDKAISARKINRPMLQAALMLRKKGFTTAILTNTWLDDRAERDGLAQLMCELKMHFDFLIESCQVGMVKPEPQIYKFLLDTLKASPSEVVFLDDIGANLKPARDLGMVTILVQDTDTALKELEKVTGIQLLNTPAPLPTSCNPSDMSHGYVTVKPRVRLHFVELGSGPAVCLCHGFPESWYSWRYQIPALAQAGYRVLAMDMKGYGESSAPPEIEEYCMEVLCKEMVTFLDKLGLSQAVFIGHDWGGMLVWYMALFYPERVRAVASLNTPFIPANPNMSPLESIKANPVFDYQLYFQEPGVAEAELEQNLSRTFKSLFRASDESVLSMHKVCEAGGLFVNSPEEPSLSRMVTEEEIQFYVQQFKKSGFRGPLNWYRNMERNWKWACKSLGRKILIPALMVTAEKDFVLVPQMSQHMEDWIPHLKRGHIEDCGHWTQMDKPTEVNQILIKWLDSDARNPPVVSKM
Briefly: sEH inhibition, kinetic fluorescent assay with CMNPC substrate. In kind it is biochemical.

Converted amounts (≈) assume the structure as drawn. Bounds are passed on as bounds.

What is called solubility is how much of the substance goes into solution per volume. Read a low solubility as a poorly soluble substance. A word on the IC50: it is the midpoint of a concentration-inhibition curve. Consider `Cc1cc(CNC(=O)NCC23CC4CC(CC(C4)C2)C3)on1` [3d], for which, in data set [1], the solubility was 450 to 475 µM (≈ 137 to 144 µg/mL). In data set [2], the IC50 is 9.9 ± 2.9 nM.
Turning to `O=C(NCc1cc(-c2ccco2)on1)NCC12CC3CC(CC(C3)C1)C2` [3c], the solubility in data set [1] was 75 to 100 µM (≈ 26.7 to 35.5 µg/mL).
In data set [1], `COc1ccc(-c2cc(CNC(=O)NC34CC5CC(C)(CC(C)(C5)C3)C4)no2)cc1` [4b] returned a solubility of 25 to 50 µM (≈ 10.2 to 20.5 µg/mL). Besides, the half-maximal inhibitory concentration (IC50) in data set [2] was 18 ± 2.9 nM.
The molecule `Cc1cc(CNC(=O)NC23CC4CC(C)(CC(C)(C4)C2)C3)on1` [4d] registered a solubility in data set [1] of 200 to 225 µM (≈ 63.5 to 71.4 µg/mL). Further, the IC50 in data set [2] amounted to 111 ± 10.3 nM. Further, the fold less potent in data set [2] (relative to 3d) is reported as 10 fold.
For `CC(C)c1cc(CNC(=O)NCC23CC4CC(CC(C4)C2)C3)on1` [3f], the solubility in data set [1] lay in the range of 125 to 150 µM (≈ 41.4 to 49.7 µg/mL).
`COc1ccc(-c2cc(CNC(=O)NCC34CC5CC(CC(C5)C3)C4)no2)cc1` [3b] displayed a solubility in data set [1] of 100 to 125 µM (≈ 39.6 to 49.4 µg/mL).
The molecule `Cc1ccc(-c2cc(CNC(=O)NC34CC5CC(C)(CC(C)(C5)C3)C4)no2)cc1` [4a] returned a solubility in data set [1] of 125 to 150 µM (≈ 49.2 to 59 µg/mL). In addition, the half-maximal inhibitory concentration (IC50) in data set [2] was 28.8 ± 4.5 nM.
Consider `O=C(NCc1cc(-c2cccc(F)c2)no1)NCC12CC3CC(CC(C3)C1)C2` [3g], for which the solubility in data set [1] is 75 to 100 µM (≈ 28.8 to 38.3 µg/mL). Further, the 50% inhibitory concentration (IC50) in data set [2] amounted to 13.7 ± 3 nM.
In data set [1], `CC12CC3CC(C)(C1)CC(NC(=O)NCc1cc(-c4cccc(F)c4)no1)(C3)C2` [4g] yielded a solubility of 75 to 100 µM (≈ 29.8 to 39.7 µg/mL). Moreover, in data set [2], the half-maximal inhibitory concentration (IC50) worked out at 14.2 ± 2.5 nM.
On to `CC(C)c1cc(C2CCCN2C(=O)NCC23CC4CC(CC(C4)C2)C3)no1` (centres unmarked) [3k], for which the “fold less active than corresponding 1,3-disubstituted urea” value in data set [2] (relative to 3f) is given as over 5 fold.
For the molecule `CC12CC3CC(C)(C1)CC(NC(=O)NCc1cc(-c4ccco4)on1)(C3)C2` [4c], the solubility in data set [1] is 75 to 100 µM (≈ 27.7 to 36.9 µg/mL). In data set [2], the IC50 worked out at 4.8 ± 0.6 nM.
For `Cc1ccc(-c2cc(CNC(=O)NCC34CC5CC(CC(C5)C3)C4)no2)cc1` [3a], in data set [1], the solubility fell in the range of 75 to 100 µM (≈ 28.5 to 38 µg/mL).
